One experiment concerns TNF-α production. As to the kind of experiment: TNF-α production in cell culture supernatant (ELISA). The format is cell-based, mouse. The note with it: FIG. 3B. On the procedure: (§1) Cytokine quantification. IL-1β in cell supernatants and brain tissue samples—after the different treatment groups—was quantified using the Mouse IL-1 beta/IL-1F2 DuoSet ELISA kit (R&D systems), IL-6 in cell culture supernatant was measured through the Mouse IL-6 ELISA kit (ThermoFisher), TNF-α in cell culture supernatants was determined using the Mouse TNF-alpha DuoSet ELISA (R*D systems), and IL-18 in brain tissue was measured through the IL-18 Mouse ELISA Kit (Invitrogen) following the manufacturers' recommended protocol. IL-1β precursor and cleaved IL-1β in the FC of mice treated with vehicles, LPS, or C77-LPS was assessed by western blot. All samples were run in technical duplicates.
(ELISA stands for enzyme-linked immunosorbent assay.)

For a further experiment, the target named is T1, AIM2 inflammasome (Mus musculus, UniProt Q91VJ1).
T1 construct: endogenous in cells; host or cells: primary microglia from NLRP3 KO mice
T1 sequence (Q91VJ1 1-354): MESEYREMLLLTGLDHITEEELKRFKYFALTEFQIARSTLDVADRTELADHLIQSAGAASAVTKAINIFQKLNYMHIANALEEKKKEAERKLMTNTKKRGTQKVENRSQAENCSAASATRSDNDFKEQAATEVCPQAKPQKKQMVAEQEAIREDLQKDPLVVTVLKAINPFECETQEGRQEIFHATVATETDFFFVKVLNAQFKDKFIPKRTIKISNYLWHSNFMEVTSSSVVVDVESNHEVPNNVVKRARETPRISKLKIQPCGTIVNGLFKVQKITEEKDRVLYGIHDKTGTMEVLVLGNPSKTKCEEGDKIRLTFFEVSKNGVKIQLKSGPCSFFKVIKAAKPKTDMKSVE
As to the kind of experiment: AIM2 inflammasome activation assay: IL-1β release, microglia from NLRP3 KO mice, LPS and poly(dA:dT). The format is cell-based. On the procedure: AIM2, NLRP7, and NLRC4 inflammasomes activation assays. Microglia from NLRP3 KO mice were pre-treated with 100 μM C75, C78, C97, or C77, during one hour. AIM2 inflammasome activation was induced through the addition of 100 ng/ml LPS for 2 hours, followed by transfection of 1 μg poly(dA:dT) using Lipofectamine 2000 during 2 hours, following the manufacturer recommendations. NLRC4 was activated by treatment with 150 ng/ml LPS for 2 hours, before transfection of 1 μg flagellin during 2 hours, using lipofectamine 2000 as transfection reagent. Negative and positive controls were pre-treated with the same DMSO percentage as cells treated with the inhibitors. Negative controls were kept untreated after DMSO addition, while LPS-poly(dA:dT) or LPS-flagellin was added to positive controls for AIM2, and NLRC4 activation, respectively. For activation of the NLRP7 inflammasome different conditions were assessed: treatment of WT microglia cultures with 400 ng/ml fibroblast-stimulating lipopeptide-1 (fsl-1) for 7 hours, priming with 150 ng/ml LPS for 1 hour and treatment with 400 ng/ml fsl-1 for 7 hours, and priming with 150 ng/ml LPS and transfection of 400 ng/ml fsl-1 with lipofectamine. MCC950 was used as a negative control for NLRC4 and AIM-2 inhibition. […]
Cytokine quantification. […] IL-1β precursor and cleaved IL-1β in the FC of mice treated with vehicles, LPS, or C77-LPS was assessed by western blot. […]

In a further experiment the test system is NLRP3. The experiment is described as follows: In-vivo assessment of C77: brain cytokines in LPS-treated mice. Set-up: species or system WT C57BL/6J mice. On the procedure:
as §1
Animals used in in-vivo assessments. WT C57BL/6J mice (stock #000664) were obtained from The Jackson Laboratory. Mice were housed in groups of five animals per cage on a 12:12 hours light/dark cycle. Water and food were provided ad libitum. 8-10 weeks males were used for experiments. All procedures were approved by the Institutional Animal Care and use Committee of the Icahn School of Medicine at Mount Sinai.
In-vivo assessment of C77. The ability of C77 to inhibit NLRP3 in-vivo was evaluated using WT C57BL/6J mice. C77 (50 mg/kg), or the same volume of DMSO vehicle, was intraperitoneally injected 2 hours before of LPS (15 mg/kg) or vehicle (PBS) administration. 1.5 hours later, the animals were sacrificed and their brain was isolated. Cortex, frontal cortex, hippocampus, and cerebellum regions from the right hemisphere were obtained for IL-1β analysis. The left hemisphere was used for gene expression analysis. N=5 animals per group.

Another experiment deals with IL6 production. As to the kind of experiment: IL-6 production in cell culture supernatant (ELISA). The note with it: FIG. 3B. The format is cell-based, mouse. Here is the method:
as §1

The target of the next experiment is T2, NLRC4 inflammasome (Mus musculus, UniProt Q3UP24).
T2 construct: endogenous in cells; host or cells: primary microglia from NLRP3 KO mice
T2 sequence (Q3UP24 whole entry): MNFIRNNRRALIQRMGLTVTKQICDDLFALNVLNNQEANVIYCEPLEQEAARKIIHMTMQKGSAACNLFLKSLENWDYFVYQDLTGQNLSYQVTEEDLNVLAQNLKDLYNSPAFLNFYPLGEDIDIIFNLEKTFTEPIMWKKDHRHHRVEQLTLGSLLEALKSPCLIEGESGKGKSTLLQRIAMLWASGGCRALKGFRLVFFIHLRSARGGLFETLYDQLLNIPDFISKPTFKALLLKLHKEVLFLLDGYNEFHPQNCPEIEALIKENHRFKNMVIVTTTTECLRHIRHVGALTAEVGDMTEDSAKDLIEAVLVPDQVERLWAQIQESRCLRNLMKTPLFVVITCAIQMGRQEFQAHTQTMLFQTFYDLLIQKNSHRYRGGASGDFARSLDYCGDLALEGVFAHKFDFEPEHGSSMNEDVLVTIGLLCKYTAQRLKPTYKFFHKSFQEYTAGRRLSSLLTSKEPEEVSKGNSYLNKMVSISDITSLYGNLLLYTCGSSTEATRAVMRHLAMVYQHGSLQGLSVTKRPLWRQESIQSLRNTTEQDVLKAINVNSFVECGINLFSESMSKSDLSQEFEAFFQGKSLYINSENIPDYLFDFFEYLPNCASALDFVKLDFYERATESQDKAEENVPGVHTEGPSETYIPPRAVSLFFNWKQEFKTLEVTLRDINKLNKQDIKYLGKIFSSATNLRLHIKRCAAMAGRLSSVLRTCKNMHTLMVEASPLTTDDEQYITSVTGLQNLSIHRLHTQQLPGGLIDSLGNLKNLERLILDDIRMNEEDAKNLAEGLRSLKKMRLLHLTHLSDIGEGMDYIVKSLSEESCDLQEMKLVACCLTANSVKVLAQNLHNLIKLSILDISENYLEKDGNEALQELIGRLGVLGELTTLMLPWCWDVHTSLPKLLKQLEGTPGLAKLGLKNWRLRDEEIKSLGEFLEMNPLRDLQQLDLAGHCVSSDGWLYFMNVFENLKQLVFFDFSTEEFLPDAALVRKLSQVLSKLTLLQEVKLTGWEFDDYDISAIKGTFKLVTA
As to the kind of experiment: NLRC4 inflammasome activation assay: IL-1β release, microglia from NLRP3 KO mice, LPS and flagellin. The experiment is classed as cell-based. The note with it: FIG. 3A. On the procedure:
AIM2, NLRP7, and NLRC4 inflammasomes activation assays. […] AIM2 inflammasome activation was induced through the addition of 100 ng/ml LPS for 2 hours, followed by transfection of 1 μg poly(dA:dT) using Lipofectamine 2000 during 2 hours, following the manufacturer recommendations. NLRC4 was activated by treatment with 150 ng/ml LPS for 2 hours, before transfection of 1 μg flagellin during 2 hours, using lipofectamine 2000 as transfection reagent. Negative and positive controls were pre-treated with the same DMSO percentage as cells treated with the inhibitors. Negative controls were kept untreated after DMSO addition, while LPS-poly(dA:dT) or LPS-flagellin was added to positive controls for AIM2, and NLRC4 activation, respectively. For activation of the NLRP7 inflammasome different conditions were assessed: treatment of WT microglia cultures with 400 ng/ml fibroblast-stimulating lipopeptide-1 (fsl-1) for 7 hours, priming with 150 ng/ml LPS for 1 hour and treatment with 400 ng/ml fsl-1 for 7 hours, and priming with 150 ng/ml LPS and transfection of 400 ng/ml fsl-1 with lipofectamine. MCC950 was used as a negative control for NLRC4 and AIM-2 inhibition. Cells were pretreated with 5 μM MCC950 before LPS addition, and 2 hours later the NLRC4 and AIM-2 activation was induced through addition of their specific activators. Cell supernatants were collected for IL-1β measurement.
as §1

Where [1] appears, read: 50 mg/kg IP 2 hours before 15 mg/kg LPS IP.

Structures are written as SMILES.

Usually IC50 stands for the point on the concentration scale where inhibition reaches its midpoint. High values mean lower potency, low ones higher potency.

As to `O=C(Cn1c(=O)oc2ccccc21)NCc1cncc(-c2ccsc2)c1` [Compound C77], the “inhibition of TNF-α production” value in the experiment with TNF-α production is given as “did not inhibit”. Further, the “inhibition of AIM2-mediated IL-1β release” value against AIM2 inflammasome is listed as “did not inhibit”. Moreover, in the experiment with NLRP3 (setting [1]), the “IL-1β levels in the cerebellum” value is given as “significantly reduced IL-1β levels”, the “IL-1β levels in the frontal cortex” value was “significantly reduced IL-1β levels”, the “IL-1β levels in the hippocampus” value is “significantly reduced IL-1β levels” and the “IL-18 levels in the frontal cortex” value is “significantly reduced IL-18 levels”. Moreover, the “cleaved IL-1β versus pro IL-1β by western blot” value in the experiment with NLRP3 (frontal cortex of mice treated with C77-LPS) was “reduces the cleaved form of IL-β and not pro IL-1β”. In addition, the “inhibition of IL6 production” value in the experiment with IL6 production is “did not inhibit”. Besides, the IC50 at NLRC4 inflammasome stood at 4.15 ± 1.65 µM.

These data come from patent publication US20240158386A1, “BENZOXAZOLONE INHIBITORS OF INFLAMMASOMES” (ICAHN SCHOOL OF MEDICINE AT MOUNT SINAI, priority 2021, published 2024).
